Experimental findings from patent US6933296B2, “Compounds effective as β2-adrenoreceptor agonists as well as PDE4-inhibitors” (Altana Pharma B.V., priority 2000, dated 2005) are described below.

The structures appear in SMILES notation.

One data set deals with T1, β2-adrenoceptor (Cavia porcellus, UniProt Q8K4Z4).
T1 construct: Male guinea-pigs (350-450 g) were killed by a sharp blow on the head and exsanguination, after that the trachea was removed; from tissue; host or cells: isolated guinea-pig trachea (ring chains in organ bath)
Put plainly: β2-Adrenoceptor agonistic activity in isolated guinea-pig trachea (relaxation). The class given is cell-based. Particulars: half-maximal relaxation of isolated guinea-pig trachea pre-treated with 3×10^−7 M RP 73401; read-out: β2-Adrenoceptor agonistic affinity [-logEC50 (mol/l)] (converted). The source says:
b) β2-Adrenoceptor Agonistic Activity in Isolated Guinea-pig Trachea
Male guinea-pigs (350-450 g) were killed by a sharp blow on the head and exsanguination, after that the trachea was removed. After clearing off adhering tissue the trachea was cut into single rings which were tied together forming up to six 4- to 5-ring chains which were suspended in 10-ml organ baths containing Krebs buffer of the following composition (mM): NaCl 118, KCl 5.2, CaCl2 1.9, MgSO4 0.56, NaH2PO4 0.8, NaHCO3 25.0, and glucose 11.1, maintained at 37° C. and continuously aerated with a mixture of 95% O2 and 5% CO2. The end of the chain was tied at the bottom of the tissue bath and connected to a force-displacement transducer (Type K-30, Hugo Sachs Elektronik, Germany) for the recording of isometric tension changes and then placed under 1.5 to 2 g of tension. After a 60 min equilibration period, during which time the preparations were repeatedly washed and the spontaneous contraction plateaud, each tracheal preparation was pre-treated with 3×10^−7 M of RP 73401 for total inhibition of PDE4, which caused relaxation of the tissue between 30 and 40% of maximum (Harris et al., 1989, JPET 251: 199-206). After stabilization of the relaxant response to RP 73401, the test drugs were administered in a cumulative manner (factor 3), each concentration remaining in contact with the trachea until the […] response reached a plateau, before addition of the next higher concentration. At the end of the test drug administration, which caused maximal relaxation the tissue (verified in control experiments for each test drug by additional administration of 10^−6 M (−)-isoprenaline), a high concentration of the β-adrenoceptor antagonist, dl-sotalol (3−6×10^−4 M), was additionally given to assess whether the relaxant response of the trachea to test compound was due to β2-adrenoceptor stimulation. dl-Sotalol nearly completely reversed the relaxation amplitude to the test compounds and was taken as evidence for their β2-adrenoceptor agonistic property. The relaxant response to test compound was expressed as percent determined between the relaxant amplitude after that reached by RP 73401 (0%) and the maximal relaxation obtained prior to dl-sotalol administration (100%). EC50 values for a half-maximal relaxation of the tissue by test compound were graphically interpolated from 12 to 16 individual concentration-response curve. The −log EC50 values (mol/l) thus obtained were taken as a measure for β2-adrenoceptor agonistic activity of the test compounds.

The subject of a further data set is human eosinophils. Put plainly: Inhibition of C5a-stimulated chemiluminescence in human eosinophils. The class given is cell-based. Particulars: Eosinophil, 100 nM C5a, 100 nM salbutamol included as additional cAMP trigger, read-out: Inhibition of C5a-stimulated chemiluminescence [-logIC30 (mol/l)] (converted).
The subject of another data set is PDE4. Put plainly: Inhibition of PDE4 activity (cytosol from human neutrophils, [3H]cAMP hydrolysis). The settings on record: 0.5 μM cAMP, Motapizone 1 μM, DMSO 0.5% for (some of) examples 1-19, 1% from example 20. The class given is biochemical. The protocol: Method for Measuring Inhibition of PDE4 Activity
PDE4 activity was determined as described by Thompson et al. (Adv Cycl Nucl Res 10: 69-92, 1979) with some modifications (Bauer and Schwabe, Naunyn-Schmiedeberg's Arch Pharmacol 311: 193-198, 1980). At a final assay volume of 200 μl (96well microtiter plates) the assay mixture contained 20 mM Tris-HCl (pH 7.4), 5 mM MgCl2, 0.5 μM cAMP, [^3H]cAMP (about 30,000 cpm/assay), the test compound and an aliquot of cytosol from human neutrophils which mainly contains PDE4 activity as described by Schudt et al. (Naunyn-Schmiedeberg's Arch Pharmacol 344: 682-690, 1991); the PDE3-specific inhibitor Motapizone (1 μM) was included to suppress PDE3 activity originating from contaminating platelets.
To minimize problems with the solubility of the compounds, starting from example 20 serial dilutions of the compounds were prepared directly in DMSO and further diluted 1:100 (v/v) in the assays to obtain now the final concentrations of the inhibitors at a DMSO concentration of 1% (v/v) which by itself only slightly affected PDE4 activity.
After preincubation for 5 min at 37° C., the reaction was started by the addition of substrate (cAMP) and the assays were incubated for further 15 min at 37° C. 50 μl of 0.2 N HCl was added to stop the reaction and the assays were left on ice for about 10 min. Following incubation with 25 μg 5′-nucleotidase (Crotalus atrox snake venom) for 10 min at 37° C., the assays were loaded on QAE Sephadex A-25 (1 ml bed volume). The columns were eluted with 2 ml of 30 mM ammonium formiate (pH 6.0) and the eluate was counted for radioactivity. Results were corrected for blank values (measured in the presence of denatured protein) which were below 5% of total radioactivity. […] The IC50-values for the compounds according to the invention for the inhibition of the PDE4 activity were determined from the concentration-inhibition curves by nonlinear-regression.

T1 sequence (Q8K4Z4 whole entry): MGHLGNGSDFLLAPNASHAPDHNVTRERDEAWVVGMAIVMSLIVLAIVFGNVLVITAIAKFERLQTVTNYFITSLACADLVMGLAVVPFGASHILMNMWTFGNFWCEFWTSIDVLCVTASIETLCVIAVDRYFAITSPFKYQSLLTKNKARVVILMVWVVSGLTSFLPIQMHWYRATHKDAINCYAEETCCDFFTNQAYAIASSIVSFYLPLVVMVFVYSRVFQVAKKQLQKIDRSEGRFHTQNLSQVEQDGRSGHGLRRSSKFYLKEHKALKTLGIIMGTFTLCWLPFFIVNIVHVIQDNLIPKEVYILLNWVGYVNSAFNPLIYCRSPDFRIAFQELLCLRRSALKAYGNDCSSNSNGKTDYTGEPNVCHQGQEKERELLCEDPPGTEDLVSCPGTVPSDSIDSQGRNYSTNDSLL

As for `COc1ccc(C2=NN(CCCCNCC(O)c3cc(Cl)c(N)c(Cl)c3)C(=O)[C@H]3CCCC[C@@H]23)cc1OC.O=C(O)/C=C/C(=O)O` (relative stereo) [Compound 1, (cis)-2-(4-[{2-(4-amino-3,5-dichlorophenyl)-2-hydroxyethyl}-amino]-1-butyl)-4-(3,4-dimethoxyphenyl)-4a,5,6,7,8,8a-hexahydro-2H-phthalazin-1-one fumarate], the melting point (usually the temperature, or range, at which the solid turns liquid) lay within 85 to 88 °C. Moreover, at β2-adrenoceptor, the EC50 is 12.9 nM. Also, the IC30 in the data set on human eosinophils was 3020 nM. Further, the Inhibition of PDE4 activity [-logIC50] in the data set on PDE4 amounted to 6.97.
For `COc1ccc(C2=NN(C3CCN(C(=O)CCCNCC(O)c4cc(Cl)c(N)c(C#N)c4)CC3)C(=O)[C@@H]3CC=CC[C@H]23)cc1OC.O=C(O)/C=C/C(=O)O` (stereo partly drawn) [Compound 20, 2-Amino-3-chloro-5-[2-(4-{4-[(4aS,8aR)-4-(3,4-dimethoxy-phenyl)-1-oxo-4a,5,8,8a-tetrahydro-1H-phthalazin-2-yl]-piperidin-1-yl}-4-oxo-butylamino)-1-hydroxy-ethyl]-benzonitrile fumarate], the EC50 at β2-adrenoceptor was 2.29 nM. Also, the IC30 in the data set on human eosinophils was 79.4 nM. Further, the Inhibition of PDE4 activity [-logIC50] with PDE4 turned out to be 10.2.
